Patent US20240408064A1, “RAS INHIBITORS, COMPOSITIONS AND METHODS OF USE THEREOF” (GENETOLEAD INC., priority 2021, published 2024)
“Also recorded” adds a separate entry of the source. Read-outs that look alike come from different tables or passages of the source.

Experiments:
HRas^G12V [1] = biological target: T1, HRas^G12V (Homo sapiens (Human), UniProt P01112, G12V); test: 19F T2-CPMG NMR score; format: binding
Method in brief: (§1)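 In the T2-CPMG experiment, echo spacing was 1 ms and total delays ranged over eight values from 1 to 800 ms. Both scores come from 600 MHz NMR of 50 μM HRas G12V mixed with fragment pools at 240 μM each, in phosphate buffer pH 7.4 with NaCl, MgCl2 and TCEP-d16. Ligand-observed 19F spectra were recorded with 1H decoupling, 64 scans and a 5 s relaxation delay.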

HRas^G12V [2] = biological target: T1, HRas^G12V; test: 19F DLB (ligand-observed 19F NMR) score; format: binding; design: scale not given here
Method in brief: as §1

HRas^G12V [3] = biological target: T1, HRas^G12V; test: Dissociation constant by NMR (1H/15N Fast-HSQC, 1H 1D protein-observed); format: binding
Protocol: All NMR experiments were collected using 3 mm NMR tubes on a 600 MHz Bruker Avance III spectrometer equipped with a QCI helium cryoprobe and a SampleJet sample changer. The buffer used for NMR experiments was 25 mM sodium phosphate pH 7.4, 150 mM NaCl, 5 mM MgCl2, 1 mM TCEP-d16, 10% D2O. Data were processed using Bruker TopSpin.
^1H/^15N Fast-HSQC experiments (Mori et al., Journal of Magnetic Resonance, Series B, Volume 108, Issue 1, July 1995, Pages 94-98) were recorded at a protein concentration of 50-100 μM.
Dissociation constants were obtained by monitoring changes in chemical shifts as a function of ligand concentration. The changes in chemical shifts (d) were calculated according to the following equation (Williamson, Progress in Nuclear Magnetic Resonance Spectroscopy, Volume 73, August 2013, Pages 1-16): d=√(1/2[δ_H^2+[…]]), Where δ are the changes in chemical shift in ppm for ^1H and ^15N and the correction factor (α) was set at 0.15.
^1H 1D protein-observed experiments were recorded with 15-50 μM protein. The standard Bruker 1D ^1H sequence with excitation sculpting (zgesgp) was employed. A relaxation delay of 1 s was employed in order to use 256 scans while still keeping experimental time fairly short. Changes in protein chemical shift or peak intensity in the methyl region were monitored against compound concentration.

HRas^G12V [4] = biological target: T1, HRas^G12V; test: Overall binding/activity in the various assays (NMR consensus binding)
Method in brief: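 Fragments (240 µM each, pooled) screened against 50 µM HRas^G12V in 25 mM sodium phosphate pH 7.4, 150 mM NaCl, 5 mM MgCl2, 1 mM TCEP-d16 by 1H-decoupled 1D 19F NMR. Hits confirmed by ligand- and protein-observed 1D 1H, STD and T2-CPMG (aggregation check); consensus binding ranked, with 15N HSQC for sites and Kd.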

Structure (SMILES) | 19F T2-CPMG Score (HRas^G12V [1]) | 19F DLB Score (HRas^G12V [2]) | Kd (HRas^G12V [3]; HRas^G12V, read-out: NMR Kd) [mM] | Binding to HRas^G12V (in words) (HRas^G12V [4]) | Kd (HRas^G12V [3]) [mM] | Activity ranking on HRas^G12V (in words) (HRas^G12V [4])
CS(=O)(=O)NCCc1c[nH]c2cc(F)ccc12 [Compound 10006, reference compound] | 19.5 | 3.24 | 10 | – | – | –
COCCNC(=O)Cc1c[nH]c2cc(F)ccc12 [Compound 10025] | 1.68 | 1.22 | 6 | low or no binding | – | –
CC(CCO)NC(=O)Cc1c[nH]c2cc(F)ccc12 (centres unmarked) [Compound 10026] | 3.17 | 1.23 | 10 | low or no binding | – | –
O=C(Cc1c[nH]c2cc(F)ccc12)NC1CCOCC1 [Compound 10027] | 3.77 | 1.42 | 7.4 | low or no binding | – | –
CC(=O)N[C@H]1CCN(C(=O)Cc2c[nH]c3cc(F)ccc23)C1 [Compound 10041] | 3.92 | 1.86 | 5.2 to 9 | – | – | –
O=C1CCN(C(=O)Cc2c[nH]c3cc(F)ccc23)CC1 [Compound 10106] | 13.41 | 2.25 | – | – | 6.43 | –
NC(=O)C1CN(C(=O)Cc2c[nH]c3cc(F)ccc23)C1 [Compound 10114, 1-(2-(6-fluoro-1H-indol-3-yl)acetyl)azetidine-3-carboxamide] | 15.2 | 2.14 | 11.1 | – | – | –
CN(C)C[C@H]1CN(C(=O)Cc2c[nH]c3cc(F)ccc23)CCO1 [Compound 10160, (S)-1-(2-((dimethylamino)methyl)morpholino)-2-(6-fluoro-1H-indol-3-yl) ethan-1-one] | – | 6.24 | 1.28 | – | – | –
CC1CN(C(=O)Cc2cc(F)cc3[nH]ccc23)C1 [Compound 10172, 2-(6-fluoro-1H-indol-4-yl)-1-(3-methylazetidin-1-yl) ethan-1-one] | 0.11 | 0.93 | – | low or no binding | – | –
CN1CCN(C(=O)Cc2c[nH]c3cc(F)ccc23)C[C@@H]1C(=O)O [Compound 10173] | 3.79 | 1.33 | – | low or no binding | – | –
CC1CN(C(=O)Cc2c[nH]c3cc(F)cnc23)C1 [Compound 10174, 2-(6-fluoro-1H-pyrrolo[3,2-b]pyridin-3-yl)-1-(3-methylazetidin-1-yl) ethan-1-one] | 2.32 | 1.14 | – | low or no binding | – | –
O=C(O)C[C@@H]1CN(C(=O)Cc2c[nH]c3cc(F)ccc23)CCO1 [Compound 10175] | 2.15 | 1.19 | – | low or no binding | – | –
CC1CN(C(=O)Cc2cc3cc[nH]c3cc2F)C1 [Compound 10176, 2-(6-fluoro-1H-indol-5-yl)-1-(3-methylazetidin-1-yl) ethan-1-one] | 0.19 | 1.01 | – | low or no binding | – | –
CCOC(=O)C[C@H]1CN(C(=O)Cc2c[nH]c3cc(F)ccc23)CCO1 [Compound 10177, Ethyl (S)-2-(4-(2-(6-fluoro-1H-indol-3-yl)acetyl)morpholin-2-yl)acetate] | 7.14 | 1.12 | – | low or no binding | – | –
O=C(O)C[C@H]1CN(C(=O)Cc2c[nH]c3cc(F)ccc23)CCO1 [Compound 10178, (S)-2-(4-(2-(6-fluoro-1H-indol-3-yl)acetyl)morpholin-2-yl)acetic acid] | 2.74 | 1.11 | – | low or no binding | – | –
COC(=O)Cc1c[nH]c2cc(F)ccc12 [Compound 11001] | 6.77 | 1.76 | – | low or no binding | – | –
O=C1CC(c2c[nH]c3cc(F)ccc23)C(=O)N1 (centres unmarked) [Compound 11006] | 24.24 | 3.43 | – | – | – | More active; also recorded: Most active
Fc1ccc2c(C3CCNC3)c[nH]c2c1 (centres unmarked) [Compound 11007] | 6.67 | 1.76 | – | low or no binding | – | –
CN(C)CC(=O)Nc1ccc(NC(=O)Cc2c[nH]c3cc(F)ccc23)cc1 [Compound 11008] | 38.4 | 6.41 | – | – | – | More active; also recorded: Most active

Structure (SMILES) | 19F T2-CPMG Score (HRas^G12V [1]) | 19F DLB Score (HRas^G12V [2]) | Kd (HRas^G12V [3]; HRas^G12V, read-out: NMR Kd) [mM] | Binding to HRas^G12V (in words) (HRas^G12V [4]) | Kd (HRas^G12V [3]) [mM] | Activity ranking on HRas^G12V (in words) (HRas^G12V [4])
Fc1ccc2c(C3=CCNCC3)c[nH]c2c1 [Compound 11011] | 5.22 | 1.52 | – | low or no binding | – | –
CC(C)(C)OC(=O)n1cc(CC#N)c2ccc(F)cc21 [Compound 11013] | 1.74 | 0.4 | – | low or no binding | – | –
CN(C)CC(=O)Nc1ccccc1NC(=O)Cc1c[nH]c2cc(F)ccc12 [Compound 11014] | 3.32 | 1.44 | – | low or no binding | – | –
CCOC(=O)C(C#N)c1c[nH]c2cc(F)ccc12 (centres unmarked) [Compound 11016] | 5.57 | 1.74 | – | low or no binding | – | –
O=C(c1ccccc1)N1CCC(c2c[nH]c3cc(F)ccc23)CC1 [Compound 11025] | −2.12 | 1 | – | low or no binding | – | –
O=C(c1ccc(F)cc1F)N1CCC(c2c[nH]c3cc(F)ccc23)CC1 [Compound 11026] | −1.86 | 2.02 | – | low or no binding | – | –
CC1(C)OC(=O)C(C(c2ccccc2F)c2c[nH]c3cc(F)ccc23)C(=O)O1 (centres unmarked) [Compound 11041] | 3.61 | 1.65 | – | low or no binding | – | –
CC1(C)OC(=O)C(C(c2ccccc2F)c2c[nH]c3cc(F)ccc23)C(=O)O1 (centres unmarked) [Compound 11042] | 5.62 | 1.56 | – | low or no binding | – | –
O=C(O)CC(c1ccccc1F)c1c[nH]c2cc(F)ccc12 (centres unmarked) [Compound 11043] | 20.23 | 3.27 | – | – | – | More active
CN(C)CC(=O)Nc1cccc(NC(=O)Cc2c[nH]c3cc(Cl)cc(F)c23)c1 [Compound 11072] | 1.02 | 0.08 | – | low or no binding | – | –
CN(C)CC(=O)Nc1cccc(NC(=O)Cc2c[nH]c3cc(F)cc(Cl)c23)c1 [Compound 11073] | <LLOQ | <LLOQ | – | – | – | More active; also recorded: Most active
CN(C)Cc1c[nH]c2ccc(F)cc12 [FS-1254, reference compound] | 0.74 | 1.15 | – | low or no binding | – | –
O=C(CN1CCCCC1)c1c[nH]c2cc(F)ccc12 [compound 10076] | 37.86 | 3.34 | – | – | – | More active
CC(=O)N1CC[C@H](NC(=O)Cc2c[nH]c3cc(F)ccc23)C1 [compound 10090] | 6.28 | 1.51 | – | low or no binding | – | –
COCCOc1cccc(NC(=O)Cc2c[nH]c3cc(F)ccc23)c1 [compound 10094] | 2.5 | 3 | – | low or no binding | – | –
CC(=O)N[C@@H]1CCCN(C(=O)Cc2c[nH]c3cc(F)ccc23)C1 [compound 10137] | 6.16 | 2.02 | – | low or no binding | – | –
COC[C@@H]1CN(C(=O)Cc2c[nH]c3cc(F)ccc23)CCO1 [compound 10155] | 8.16 | 1.49 | – | low or no binding | – | –
CC(=O)NC[C@@H]1CN(C(=O)Cc2c[nH]c3cc(F)ccc23)CCO1 [compound 10164] | 5.59 | 1.61 | – | low or no binding | – | –
